Paper PMC6222422, “Synthesis and Biological Evaluation of Novel Indole-Derived Thioureas” (Molecules : A Journal of Synthetic Chemistry and Natural …, 2018)
Values after ≈ are worked out from the molar mass of the structure shown. Read-outs that look alike come from different tables or passages of the source.

Legend:
BVDV = test: microbe, parasite or virus in culture; type: cell-based, bovine viral diarrhoea virus; settings: Bovine viral diarrhea virus isolates and strains, MDBK, in Bos taurus, read-out: BVDV EC50
YFV = test: microbe, parasite or virus in culture; type: cell-based; settings: Yellow fever virus, BHK, read-out: YFV EC50
CV-B5 = test: microbe, parasite or virus in culture; type: cell-based, coxsackievirus B5; settings: Enterovirus B, CVB5, Vero 76, read-out: CV-B5 EC50
Sb-1 = test: microbe, parasite or virus in culture; type: cell-based, poliovirus type-1; settings: Enterovirus C, Vero 76, read-out: Sb-1 EC50
Reo-1 = test: microbe, parasite or virus in culture; type: cell-based, reovirus type-1; settings: Reovirus sp., BHK, read-out: Reo-1 EC50
RSV = test: microbe, parasite or virus in culture; type: cell-based, human respiratory syncytial virus; settings: for EC50: human respiratory syncytial virus, Vero 76, read-out: RSV EC50
VSV = test: microbe, parasite or virus in culture; type: cell-based; settings: Vesicular stomatitis virus, Vero 76, read-out: VSV EC50
VV = test: microbe, parasite or virus in culture; type: cell-based; settings: Orthopoxvirus vaccinia, Vero 76, read-out: VV EC50
HSV-1 = test: microbe, parasite or virus in culture; type: cell-based, human herpes 1; settings: Human alphaherpesvirus 1, Vero 76, read-out: HSV-1 EC50
Cytotoxicity, MTT method [1] = settings: human
Cytotoxicity, MTT method [2] = settings: cattle (Bos taurus)
Cytotoxicity, MTT method [3] = settings: Syrian hamster (Mesocricetus auratus)
Cytotoxicity, MTT method [4] = settings: African green monkey (Cercopithecus aethiops)
HIV-1 = test: microbe, parasite or virus in culture
S. aureus NCTC 4163 [5] = test: MIC, twofold serial agar dilution; type: cell-based; settings: Staphylococcus aureus, NCTC4163, 18 h, 35 °C, read-out: minimal inhibitory concentrations (MIC)
S. aureus ATCC 25923 [6] = test: MIC, twofold serial agar dilution; type: cell-based; settings: Staphylococcus aureus, ATCC25923, 18 h, 35 °C, read-out: minimal inhibitory concentrations (MIC)
S. aureus ATCC 6538 [7] = test: MIC, twofold serial agar dilution; type: cell-based; settings: Staphylococcus aureus, ATCC6538, 18 h, 35 °C, read-out: minimal inhibitory concentrations (MIC)
S. aureus ATCC 29213 [8] = test: MIC, twofold serial agar dilution; type: cell-based; settings: Staphylococcus aureus, ATCC29213, 18 h, 35 °C, read-out: minimal inhibitory concentrations (MIC)
B. subtilis ATCC 6633 [9] = test: MIC, twofold serial agar dilution; type: cell-based; settings: Bacillus subtilis, ATCC6633, 18 h, 35 °C, read-out: minimal inhibitory concentrations (MIC)
B. cereus ATCC 11778 [10] = test: MIC, twofold serial agar dilution; type: cell-based; settings: Bacillus cereus, ATCC11778, 18 h, 35 °C, read-out: minimal inhibitory concentrations (MIC)
M. luteus ATCC 9341 [11] = test: MIC, twofold serial agar dilution; type: cell-based; settings: Micrococcus luteus, ATCC9341, 18 h, 35 °C, read-out: minimal inhibitory concentrations (MIC)
M. luteus ATCC 10240 [12] = test: MIC, twofold serial agar dilution; type: cell-based; settings: Micrococcus luteus, ATCC10240, 18 h, 35 °C, read-out: minimal inhibitory concentrations (MIC)
S. aureus NCTC 4163 [13] = test: disc diffusion method; type: cell-based, Staphylococcus aureus; settings: Staphylococcus aureus, NCTC4163, applied 400 µg per disc, dash = lack of the growth inhibition area, read-out: diameter of growth inhibitory zone (GIZ)
S. aureus ATCC 25923 [14] = test: disc diffusion method; type: cell-based, Staphylococcus aureus; settings: Staphylococcus aureus, ATCC25923, applied 400 µg per disc, dash = lack of the growth inhibition area, read-out: diameter of growth inhibitory zone (GIZ)
S. aureus ATCC 6538 [15] = test: disc diffusion method; type: cell-based, Staphylococcus aureus; settings: Staphylococcus aureus, ATCC6538, applied 400 µg per disc, dash = lack of the growth inhibition area, read-out: diameter of growth inhibitory zone (GIZ)
S. aureus ATCC 29213 [16] = test: disc diffusion method; type: cell-based, Staphylococcus aureus; settings: Staphylococcus aureus, ATCC29213, applied 400 µg per disc, dash = lack of the growth inhibition area, read-out: diameter of growth inhibitory zone (GIZ)
B. subtilis ATCC 6633 [17] = test: disc diffusion method; type: cell-based, Bacillus subtilis; settings: Bacillus subtilis, ATCC6633, applied 400 µg per disc, dash = lack of the growth inhibition area, read-out: diameter of growth inhibitory zone (GIZ)
B. cereus ATCC 11778 [18] = test: disc diffusion method; type: cell-based, Bacillus cereus; settings: Bacillus cereus, ATCC11778, applied 400 µg per disc, dash = lack of the growth inhibition area, read-out: diameter of growth inhibitory zone (GIZ)
M. luteus ATCC 9341 [19] = test: disc diffusion method; type: cell-based, Micrococcus luteus; settings: Micrococcus luteus, ATCC9341, applied 400 µg per disc, dash = lack of the growth inhibition area, read-out: diameter of growth inhibitory zone (GIZ)
M. luteus ATCC 10240 [20] = test: disc diffusion method; type: cell-based, Micrococcus luteus; settings: Micrococcus luteus, ATCC10240, applied 400 µg per disc, dash = lack of the growth inhibition area, read-out: diameter of growth inhibitory zone (GIZ)
in vitro [21] = settings: human
in vitro [22] = settings: cattle (Bos taurus)
in vitro [23] = settings: Syrian hamster (Mesocricetus auratus)
in vitro [24] = settings: African green monkey (Cercopithecus aethiops)
S. epidermidis (MRSE) = test: MIC against hospital strains; settings: Staphylococcus epidermidis
[25] = test system: HIV-1 N119 (Y181C mutant); test: microbe, parasite or virus in culture; type: cell-based, Human Immunodeficiency Virus type-1; settings: Human immunodeficiency virus 1, MT4, read-out: EC50 N119
[26] = test system: HIV-1 A17 (K103N + Y181C mutant); test: microbe, parasite or virus in culture; type: cell-based, Human Immunodeficiency Virus type-1; settings: Human immunodeficiency virus 1, MT4, 96 h, read-out: EC50 A17
[27] = test system: HIV-1 EFV^R (K103R + V179D + P225H mutant); test: microbe, parasite or virus in culture; type: cell-based, Human Immunodeficiency Virus type-1; settings: Human immunodeficiency virus 1, MT4, 96 h, read-out: EC50 EFV^R
[28] = test system: HIV-1 AZT^R strain (67N, 70R, 215F, 219Q); test: microbe, parasite or virus in culture; type: cell-based, Human Immunodeficiency Virus type-1; settings: Human immunodeficiency virus 1, MT4, read-out: EC50 AZT^R
[29] = test system: HIV-1 MDR strain (74V, 41L, 106A, 215Y); test: microbe, parasite or virus in culture; type: cell-based, Human Immunodeficiency Virus type-1; settings: Human immunodeficiency virus 1, MT4, read-out: EC50 MDR
[30] = Human immunodeficiency virus 1, MT4, read-out: HIV-1 EC50

Compound: COc1ccc(NC(=S)NCCc2c[nH]c3ccccc23)cc1 [Compound 2, 1-(2-(1H-Indol-3-yl)ethyl)-3-(4-methoxyphenyl)thiourea]
- EC50 (BVDV): > 100 µM
- EC50 (YFV): > 44 µM
- EC50 (CV-B5): > 56 µM
- EC50 (Sb-1): > 56 µM
- EC50 (Reo-1): > 44 µM
- EC50 (RSV): > 56 µM
- EC50 (VSV): > 56 µM
- EC50 (VV): > 56 µM
- EC50 (HSV-1): > 56 µM
- melting point: 146 to 148 °C
- CC50 (Cytotoxicity, MTT method [1]): 32 µM
- CC50 (Cytotoxicity, MTT method [2]): > 100 µM
- CC50 (Cytotoxicity, MTT method [3]): 44 µM
- CC50 (Cytotoxicity, MTT method [4]): 56 µM
- EC50 (HIV-1; [30]): > 32 µM

Compound: Cc1ccc(NC(=S)NCCc2c[nH]c3ccccc23)cc1 [Compound 3, 1-(2-(1H-Indol-3-yl)ethyl)-3-(4-methylphenyl)thiourea]
- EC50 (BVDV): ≥ 100 µM
- EC50 (YFV): > 16 µM
- EC50 (CV-B5): > 75 µM
- EC50 (Sb-1): > 75 µM
- EC50 (Reo-1): > 16 µM
- activity against RSV (in words) (RSV): moderately active
- EC50 (RSV): 20 ± 3 µM
- EC50 (VSV): > 75 µM
- EC50 (VV): > 75 µM
- EC50 (HSV-1): > 75 µM
- CC50 (Cytotoxicity, MTT method [1]): 33 µM
- CC50 (Cytotoxicity, MTT method [2]): > 100 µM
- CC50 (Cytotoxicity, MTT method [3]): 16 µM
- CC50 (Cytotoxicity, MTT method [4]): 75 µM
- EC50 (HIV-1; [30]): > 33 µM

Compound: S=C(NCCc1c[nH]c2ccccc12)Nc1ccccc1Br [Compound 15, 1-(2-(1H-Indol-3-yl)ethyl)-3-(2-bromophenyl)thiourea]
- MIC (S. aureus NCTC 4163 [5]): 50 µg/mL (≈ 134 µM)
- MIC (S. aureus ATCC 25923 [6]): 100 µg/mL (≈ 267 µM)
- MIC (S. aureus ATCC 6538 [7]): 50 µg/mL (≈ 134 µM)
- MIC (S. aureus ATCC 29213 [8]): 50 µg/mL (≈ 134 µM)
- MIC (B. subtilis ATCC 6633 [9]): 50 µg/mL (≈ 134 µM)
- MIC (B. cereus ATCC 11778 [10]): 50 µg/mL (≈ 134 µM)
- MIC (M. luteus ATCC 9341 [11]): 200 µg/mL (≈ 534 µM)
- MIC (M. luteus ATCC 10240 [12]): 50 µg/mL (≈ 134 µM)
- zone of inhibition at 400 µg/disc (S. aureus NCTC 4163 [13]): 11 mm
- zone of inhibition at 400 µg/disc (S. aureus ATCC 25923 [14]): 11 mm
- zone of inhibition at 400 µg/disc (S. aureus ATCC 6538 [15]): 12 mm
- zone of inhibition at 400 µg/disc (S. aureus ATCC 29213 [16]): 11 mm
- zone of inhibition at 400 µg/disc (B. subtilis ATCC 6633 [17]): 15 mm
- zone of inhibition at 400 µg/disc (B. cereus ATCC 11778 [18]): 14 mm
- zone of inhibition at 400 µg/disc (M. luteus ATCC 9341 [19]): 13 mm
- zone of inhibition at 400 µg/disc (M. luteus ATCC 10240 [20]): 14 mm
- EC50 (BVDV): > 48 µM
- EC50 (YFV): > 28 µM
- EC50 (CV-B5): > 46 µM
- EC50 (Sb-1): > 46 µM
- EC50 (Reo-1): > 28 µM
- activity against RSV (in words) (RSV): moderately active
- EC50 (RSV): 20 ± 2.5 µM
- EC50 (VSV): > 46 µM
- EC50 (VV): > 46 µM
- EC50 (HSV-1): > 46 µM
- melting point: 150 to 152 °C
- CC50 (in vitro [21]): 46 µM
- CC50 (in vitro [22]): 48 µM
- CC50 (in vitro [23]): 28 µM
- CC50 (in vitro [24]): 46 µM
- MIC (S. epidermidis (MRSE); hospital S. epidermidis MRSE strain 430/11): 400 µg/mL (≈ 1070 µM)
- MIC (S. epidermidis (MRSE); hospital S. epidermidis MRSE strain 431/11): 50 µg/mL (≈ 134 µM)
- MIC (S. epidermidis (MRSE); hospital S. epidermidis MRSE strain 432/11): 50 µg/mL (≈ 134 µM)
- MIC (S. epidermidis (MRSE); hospital S. epidermidis MRSE strain 433/11): 50 µg/mL (≈ 134 µM)
- MIC (S. epidermidis (MRSE); hospital S. epidermidis MRSE strain 434/11): 50 µg/mL (≈ 134 µM)
- MIC (S. epidermidis (MRSE); hospital S. epidermidis MRSE strain 435/11): 100 µg/mL (≈ 267 µM)
- MIC (S. epidermidis (MRSE); hospital S. epidermidis MRSE strain 436/11): 100 µg/mL (≈ 267 µM)
- MIC (S. epidermidis (MRSE); hospital S. epidermidis MRSE strain 437/11): 100 µg/mL (≈ 267 µM)
- MIC (S. epidermidis (MRSE); hospital S. epidermidis MRSE strain 438/11): 200 µg/mL (≈ 534 µM)
- MIC (S. epidermidis (MRSE); hospital S. epidermidis MRSE strain 439/11): 50 µg/mL (≈ 134 µM)
- EC50 (HIV-1; [30]): > 46 µM

Compound: O=C1Nc2ccc(Cl)cc2[C@@](C#CC2CC2)(C(F)(F)F)O1 [Efavirenz]
- EC50 [25]: 0.018 ± 0.002 µM
- EC50 [26]: 0.075 ± 0.009 µM
- EC50 [27]: 7 ± 0.8 µM
- EC50 [28]: 0.001 ± 0.0002 µM
- CC50 (in vitro [21]): 40 µM

Compound: Cc1ccnc2c1NC(=O)c1cccnc1N2C1CC1 [Nevirapine]
- EC50 [25]: 6.3 ± 0.05 µM
- EC50 [26]: 80 µM
- EC50 [27]: 100 µM
- EC50 [28]: 0.078 ± 0.008 µM
- EC50 [29]: 5 ± 0.6 µM
- CC50 (in vitro [21]): > 100 µM
- EC50 (HIV-1; Human immunodeficiency virus 1, MT4, read-out: EC50 HIV-1): 0.08 ± 0.005 µM
